Measured values reported in publication PMC8811472, “Systematic In Vitro Evaluation of a Library of Approved and Pharmacologically Active Compounds for the Identification of Novel Candidate Drugs for KMT2A-Rearranged Leukemia” (Frontiers in Oncology, 2022).

Tests used:
U937 cells = experiment: 72-hour resazurin-based cytotoxicity assay, U937; format: cell-based, human; settings: U937, CALM-AF10, AML
Method: (§1) All cell lines used in this study were mycoplasma-free and have been authenticated using STR profiling. Cells were cultured as previously described ([7], [8]). Characteristics of the leukemia cell lines used in this study are described in Supplementary Table 1 . Peripheral blood mononuclear cells from healthy donors were purchased from Australian Red Cross.
(§2) The cytotoxicity of drugs was assessed through resazurin-based assays and the inhibitory concentration resulting in 50% reduction of cell survival relative to control (IC50) was calculated as previously described ([7]). In synergy studies, cells were exposed to a dilution series of compounds, as single agents or in combination, in resazurin-based assays (72 hours) as described ([8]–[10]). The occurrence of synergy was determined with the Bliss Independence model as previously described ([8]–[10]). Bliss Prediction curves indicated the predicted percentage viability of the cells when exposed to the combination of compounds if both compounds work additively together. Synergy was visualised as the presence of a lower cell viability upon combination of two compounds compared to the viability predicted based on the presence of an additive effect of the compounds (i.e., the viability curve of the combination runs below the Bliss Prediction curve). […]

KP-MO-TS cells = experiment: 72-hour resazurin-based cytotoxicity assay, KP-MO-TS; format: cell-based, human; settings: CALM-AF10, AML
Method: as §1, §2

PER-485 cells [1] = experiment: 72-hour resazurin-based cytotoxicity assay, PER-485; format: cell-based, human; settings: PER-485, KMT2A-r t(4;11), infant ALL derived
Method: as §1
(§3) The cytotoxicity of drugs was assessed through resazurin-based assays and the inhibitory concentration resulting in 50% reduction of cell survival relative to control (IC50) was calculated as previously described ([7]). In synergy studies, cells were exposed to a dilution series of compounds, as single agents or in combination, in resazurin-based assays (72 hours) as described ([8]–[10]). The occurrence of synergy was determined with the Bliss Independence model as previously described ([8]–[10]). Bliss Prediction curves indicated the predicted percentage viability of the cells when exposed to the combination of compounds if both compounds work additively together. Synergy was visualised as the presence of a lower cell viability upon combination of two compounds compared to the viability predicted based on the presence of an additive effect of the compounds (i.e., the viability curve of the combination runs below the Bliss Prediction curve). The percentage of apoptotic cells was assessed by annexin V and 7-Aminoactinomycin D (7-AAD) (BD Biosciences, Australia) flow cytometry as previously described ([7]).

PER-490 cells = experiment: 72-hour resazurin-based cytotoxicity assay, PER-490; format: cell-based, human; settings: PER-490, KMT2A-r t(4;11), infant ALL
Method: as §1, §2

THP-1 cells = experiment: 72-hour resazurin-based cytotoxicity assay, THP-1; format: cell-based, human; settings: THP-1, KMT2A-r t(9;11), infant AML
Method: as §1, §3

PER-703 cells = experiment: 72-hour resazurin-based cytotoxicity assay, PER-703; format: cell-based, human; settings: PER-703, KMT2A-r t(1;11), infant ALL derived
Method: as §1, §2

PER-785 cells = experiment: 72-hour resazurin-based cytotoxicity assay, PER-785; format: cell-based, human; settings: PER-785, KMT2A-r t(4;11), infant ALL
Method: as §1, §2

PER-826 cells = experiment: 72-hour resazurin-based cytotoxicity assay, PER-826; format: cell-based, human; settings: PER-826, KMT2A-r complex t(11;19), infant ALL
Method: as §1, §2

KOPN-8 cells = experiment: 72-hour resazurin-based cytotoxicity assay, KOPN-8; parameters: species or system human; settings: KOPN-8, KMT2A-r t(11;19), infant pre-B cell ALL
Method: as §1, §2

MOLM-13 cells = experiment: 72-hour resazurin-based cytotoxicity assay, MOLM-13; format: cell-based, human; settings: MOLM-13, KMT2A-r t(9;11), AML
Method: as §1, §3

MV4;11 cells = experiment: 72-hour resazurin-based cytotoxicity assay, MV4;11; format: cell-based, human; settings: MV4;11, KMT2A-r t(4;11), childhood AML
Method: as §1, §2

SEMK2 cells = experiment: 72-hour resazurin-based cytotoxicity assay, SEMK2; parameters: species or system human; settings: SEMK2, KMT2A-r t(4;11), pre-B cell childhood ALL
Method: as §1, §3

RS4;11 cells = experiment: 72-hour resazurin-based cytotoxicity assay, RS4;11; parameters: species or system human; settings: RS4;11, KMT2A-r t(4;11), pre-B cell ALL
Method: as §1, §3

CEM cells = experiment: 72-hour resazurin-based cytotoxicity assay, CEM; parameters: species or system human; settings: KMT2A-wt, childhood T-cell ALL
Method: as §1, §3

REH cells = experiment: 72-hour resazurin-based cytotoxicity assay, REH; parameters: species or system human; settings: KMT2A-wt, pre-B cell ALL
Method: as §1, §3

Jurkat cells = experiment: 72-hour resazurin-based cytotoxicity assay, Jurkat; parameters: species or system human; settings: KMT2A-wt, childhood T-cell ALL
Method: as §1, §3

KELLY cells = experiment: 72-hour resazurin-based cytotoxicity assay, KELLY; format: cell-based, human; settings: neuroblastoma
Method: as §1, §2

BE(2)C cells = experiment: 72-hour resazurin-based cytotoxicity assay, BE(2)C; format: cell-based, human; settings: childhood neuroblastoma
Method: as §1, §2

HEY cells = experiment: 72-hour resazurin-based cytotoxicity assay, HEY; format: cell-based, human; settings: ovarian carcinoma
Method: as §1, §2

27/87 cells = experiment: 72-hour resazurin-based cytotoxicity assay, 27/87; format: cell-based, human; settings: 27/87, endometrioid ovarian cancer
Method: as §1, §2

MCF-7 cells = experiment: 72-hour resazurin-based cytotoxicity assay, MCF-7; format: cell-based, human; settings: MCF-7, breast adenocarcinoma
Method: as §1, §2

H460 cells = experiment: 72-hour resazurin-based cytotoxicity assay, H460; format: cell-based, human; settings: H460, lung carcinoma
Method: as §1, §2

LNCaP cells = experiment: 72-hour resazurin-based cytotoxicity assay, LNCaP; format: cell-based, human; settings: prostate carcinoma
Method: as §1, §2

MRC-5 cells = experiment: 72-hour resazurin-based cytotoxicity assay, MRC-5; format: cell-based, human; settings: MRC-5, non-malignant, normal lung
Method: as §1, §3

WI-38 cells = experiment: 72-hour resazurin-based cytotoxicity assay, WI-38; format: cell-based, human; settings: WI-38, non-malignant, normal lung
Method: as §1, §2

[2] = tested on: peripheral blood mononuclear cells from healthy donors; experiment: 72-hour resazurin-based viability assay, PBMC from healthy donors; format: cell-based, human; settings: for IC50: PBMC, 72 h resazurin
Method: as §1, §3

[3] = tested on: KMT2A-r cells (PER-485 and THP-1); experiment: Annexin V positive cells, KMT2A-r cells; format: cell-based, human; settings: as early as 6 hours post-exposure; IC50 doses
Method: as §3

[4] = tested on: cleavage of PARP and caspase-3; experiment: Western blot of apoptotic markers; format: cell-based, human; settings: sensitive KMT2A-r leukemia cells, not in KMT2A-wt
Method: Western blotting experiments were performed as previously described ([7]). Antibodies used are listed in Supplementary Table 2 . Actin was used as a loading control.

[5] = tested on: NR5A1 target genes ENO1 and PKM; KMT2A target genes; experiment: qRT-PCR of gene expression after treatment; format: cell-based, human; settings: three hours
Method: Total RNA was isolated using a Qiagen RNeasy kit and cDNA synthesized using the iScript cDNA Synthesis Kit (BioRad). Quantitative PCR was run and analyzed on Applied Biosystem’s QuantStudio5 Real-Time PCR Detection System, using Taqman gene expression assays for genes NR5A1 (Hs00610436_m1), GUSB (Hs99999908_m1) and HPRT (Hs99999909_m1) Relative expressions were determined as previously described ([7]).

PER-485 cells [6] = experiment: Synergy study (Bliss Independence model), PER-485; format: cell-based, human; settings: PER-485, 72 h
Method: as §3

MOLM13 cells = experiment: Synergy study (Bliss Independence model), MOLM13; format: cell-based, human; settings: MOLM13, 72 h
Method: as §3

KMT2A-wt REH cells = experiment: Synergy study (Bliss Independence model), REH; format: cell-based, human; settings: 72 h
Method: as §3

[7] = Mouse liver microsomal stability assay; format: in vitro ADME; settings: mouse liver microsomes
Description: Compound half-life was estimated by mouse liver microsomal stability assays as described ([10]).

**Q.** With CCOC(=O)C(C)Oc1cccc2c(=O)n(CC(=O)Nc3ccc4c(c3)OCCO4)ccc12 (centres unmarked) [SID7969543] as the molecule, how does the IC50 (U937 cells) read?
**A.** 1900 nM

**Q.** What about the IC50 (KP-MO-TS cells) of the same molecule?
**A.** 1900 nM

**Q.** And the IC50 (PER-485 cells [1])?
**A.** 1400 nM

**Q.** What about the IC50 (PER-490 cells) of the same molecule?
**A.** 1900 nM

**Q.** And the IC50 (THP-1 cells)?
**A.** 2600 nM

**Q.** What about the IC50 (PER-703 cells) of the same molecule?
**A.** 4.9 µM

**Q.** What about the IC50 (PER-785 cells) of the same molecule?
**A.** 5 µM

**Q.** And the IC50 (PER-826 cells)?
**A.** > 20 µM

**Q.** And the IC50 (KOPN-8 cells)?
**A.** > 20 µM

**Q.** What about the IC50 (MOLM-13 cells) of the same molecule?
**A.** 1000 nM

**Q.** And the IC50 (MV4;11 cells)?
**A.** 2500 nM

**Q.** And the IC50 (SEMK2 cells)?
**A.** > 20 µM

**Q.** And the IC50 (RS4;11 cells)?
**A.** > 20 µM

**Q.** And the IC50 (CEM cells)?
**A.** > 20 µM

**Q.** And the IC50 (REH cells)?
**A.** > 20 µM

**Q.** And the IC50 (Jurkat cells)?
**A.** > 20 µM

**Q.** And the IC50 (KELLY cells)?
**A.** > 20 µM

**Q.** What about the IC50 (BE(2)C cells) of the same molecule?
**A.** > 20 µM

**Q.** And the IC50 (HEY cells)?
**A.** > 20 µM

**Q.** And the IC50 (27/87 cells)?
**A.** > 20 µM

**Q.** What about the IC50 (MCF-7 cells) of the same molecule?
**A.** > 20 µM

**Q.** And the IC50 (H460 cells)?
**A.** > 20 µM

**Q.** And the IC50 (LNCaP cells)?
**A.** > 20 µM

**Q.** What about the IC50 (MRC-5 cells) of the same molecule?
**A.** > 20 µM

**Q.** What about the IC50 (WI-38 cells) of the same molecule?
**A.** > 20 µM

**Q.** What about the IC50 ([2]; Donor 1) of the same molecule?
**A.** > 20 µM

**Q.** What about the IC50 ([2]; Donor 2) of the same molecule?
**A.** > 20 µM

**Q.** What about the IC50 ([2]; Donor 3) of the same molecule?
**A.** > 20 µM

**Q.** What about the “viability of peripheral blood mononuclear cells (PBMC)” value ([2]; healthy donors, doses that inhibit KMT2A-r leukemia cells) of the same molecule?
**A.** did not significantly impact the viability

**Q.** What about the “percentage of annexin V-positive KMT2A-r cells” value [3] of the same molecule?
**A.** significantly increased

**Q.** What about the “cleavage of PARP and caspase-3” value [4] of the same molecule?
**A.** increased cleavage

**Q.** And the “expression of genes not regulated by NR5A1 (HOXA9, HOXA10, MEIS1, MYB)” value ([5]; KMT2A-r cell lines)?
**A.** remained unchanged

**Q.** And the “expression of NR5A1 target genes ENO1 and PKM” value ([5]; sensitive KMT2A-r cell lines, before induction of apoptosis)?
**A.** significantly decreased

**Q.** What about the “combination effect (Bliss)” value (PER-485 cells [6]; with cytarabine) of the same molecule?
**A.** synergy

**Q.** And the “combination effect (Bliss)” value (PER-485 cells [6]; with daunorubicin)?
**A.** synergy

**Q.** What about the “combination effect (Bliss)” value (PER-485 cells [6]; with etoposide) of the same molecule?
**A.** synergy

**Q.** And the “combination effect (Bliss)” value (PER-485 cells [6]; with mitoxantrone)?
**A.** additive

**Q.** What about the “combination effect (Bliss)” value (PER-485 cells [6]; with topotecan) of the same molecule?
**A.** additive

**Q.** And the “combination effect (Bliss)” value (MOLM13 cells; with cytarabine)?
**A.** synergy

**Q.** What about the “combination effect (Bliss)” value (MOLM13 cells; with daunorubicin) of the same molecule?
**A.** synergy

**Q.** What about the “combination effect (Bliss)” value (MOLM13 cells; with etoposide) of the same molecule?
**A.** additive

**Q.** What about the “combination effect (Bliss)” value (MOLM13 cells; with mitoxantrone) of the same molecule?
**A.** additive

**Q.** And the “combination effect (Bliss)” value (MOLM13 cells; with topotecan)?
**A.** additive

**Q.** And the “combination effect (Bliss)” value (KMT2A-wt REH cells; with cytarabine)?
**A.** No synergy

**Q.** And the “combination effect (Bliss)” value (KMT2A-wt REH cells; with daunorubicin)?
**A.** No synergy

**Q.** What about the “combination effect (Bliss)” value (KMT2A-wt REH cells; with etoposide) of the same molecule?
**A.** No synergy

**Q.** And the “half-life in microsomal stability assays” value [7]?
**A.** short half-life
